{"source": "patent US9566269B2", "about": "“Modified release compositions of epalrestat or a derivative thereof and methods for using the same” (Bionevia Pharmaceuticals Inc., priority 2011, dated 2017)", "key": {"[1]": {"conditions": "cited from earlier work"}, "[2]": {"experiment": "Ionization study in different pH environments (calculated from pKa)", "assay_type": "physicochemical", "method": "The percentage ionization of Epalrestat in different pH environments of the human gastrointestinal tract was calculated based on the pKa value (3.61)."}, "[3]": {"conditions": "cited from earlier work", "remark": "listed apart in the source"}, "[4]": {"conditions": "immediate release 50 mg dosage, healthy adult volunteers"}}}
{"smiles": "C/C(C=C1SC(=S)N(CC(=O)O)C1=O)=C\\c1ccccc1", "note": "(single isomer, unassigned) [epalrestat, 5-[(1Z,2E)-2-methyl-3-phenylpropenylidene]-4-oxo-2-thioxo-3-thiazolidineacetic acid]", "values": [{"measurement": "Plasma level", "setting": "[1]; 4 hours after administration of 50 mg tablets of epalrestat free acid", "value": 370, "unit": "ng/mL"}, {"measurement": "Cmax", "setting": "[1]; [4]", "value": 3900, "unit": "ng/mL"}, {"measurement": "t1/2", "setting": "[1]; [4]", "value": 1.8, "unit": "h"}, {"measurement": "tmax", "setting": "[1]; [4]", "value": 1.05, "unit": "h"}, {"measurement": "total AUC0-∞", "setting": "[1]; [4]", "value": 6400, "unit": "ng·h/mL"}, {"measurement": "% Ionized", "setting": "[2]; pH 1.2", "value": 0, "unit": "%"}, {"measurement": "% Ionized", "setting": "[2]; pH 3.0", "value": 20.0, "unit": "%"}, {"measurement": "% Ionized", "setting": "[2]; pH 3.5", "value": 44.0, "unit": "%"}, {"measurement": "% Ionized", "setting": "[2]; pH 4.0", "value": 71.0, "unit": "%"}, {"measurement": "% Ionized", "setting": "[2]; pH 4.5", "value": 89.0, "unit": "%"}, {"measurement": "% Ionized", "setting": "[2]; pH 5.0", "value": 96.0, "unit": "%"}, {"measurement": "% Ionized", "setting": "[2]; pH 5.5", "value": 99.0, "unit": "%"}, {"measurement": "% Ionized", "setting": "[2]; pH 6.0", "value": 100.0, "unit": "%"}, {"measurement": "% Ionized", "setting": "[2]; pH 6.8", "value": 100.0, "unit": "%"}, {"measurement": "pKa value", "setting": "[3]", "value": 3.61}]}
